Laboratory results: US20060142247A1, “Tricyclic heterocycles” (priority 2004, published 2006)

Target: T1, Aurora A (Homo sapiens, UniProt O14965)
T1 construct: C-terminally Histidine4 (His4)-tagged Aurora A full-length protein; His4 (C)
T1 sequence (O14965 1-403): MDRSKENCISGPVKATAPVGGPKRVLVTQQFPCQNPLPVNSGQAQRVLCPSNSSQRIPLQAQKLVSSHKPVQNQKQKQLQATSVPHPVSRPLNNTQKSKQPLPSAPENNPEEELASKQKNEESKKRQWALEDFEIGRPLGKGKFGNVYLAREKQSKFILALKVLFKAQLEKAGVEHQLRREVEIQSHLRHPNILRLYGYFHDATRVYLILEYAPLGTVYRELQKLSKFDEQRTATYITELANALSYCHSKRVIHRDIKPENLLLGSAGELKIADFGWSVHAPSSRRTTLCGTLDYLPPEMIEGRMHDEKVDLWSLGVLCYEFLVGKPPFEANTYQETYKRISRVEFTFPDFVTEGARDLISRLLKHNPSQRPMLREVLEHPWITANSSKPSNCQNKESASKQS
Test: IC50 determination for inhibitors of Aurora A (96 MTP-ELISA)
Format: biochemical
Details: His4-tagged full-length Aurora A 250 ng/ml, PKB-GSK2 200 nM, ATP 4 μM, 90 min room temperature, read-out: IC50 Aurora A kinase inhibition
Protocol: Aurora A is a serine threonine kinase involved in spindle assembly and chromosome segregation. The assay is a typically ELISA-type assay where biotinylated substrate (PKB-GSK2) is phosphorylated. Phosphorylation is detected by peroxidase (POD) labelled polyclonal antibody (PAK<M-Ig>S-IgG-POD) and phosphopeptide monoclonal antibody (Mab) (MAK<P-GSK>M-27E5-IgG). The assay is validated for IC50-determination.
Assay plates: 96-well polystyrene plates, streptavidin-coated,
Samples: 10 mM in dimethylsulfoxide (DMSO)
Aurora A-His-4: C-terminally Histidine4 (His4)-tagged Aurora A full-length protein, stock solution 0.7 mg/ml, final conc.: 250 ng/ml
PKB-GSK2: biotinylated peptide derived from human GSK3-alpha sequence (Biotin-SGRARTSSFAEPGG-CONH2), stock solution 600 μM, final conc.: 200 nM
PAK<M-Ig>S-IgG-POD: Anti-mouse IgG, horse radish peroxidase(HRP)-linked Antibody, diluted in 3% BSA/PBS-T (1:10000), (Cell Signaling, Cat. No.: 7076)
MAK<P-GSK>M-27E5-IgG: Phospho-GSK-3-alpha (Ser 21) (27E5) Monoclonal Antibody, stock solution 1.85 mg/ml, diluted in 3% BSA/PBS-T (1:6000), final conc.: 0.31 μg/ml, (Cell Signaling, Cat. No.: 9337B)
ATP: Adenosine-5′-triphosphate 1 mM, diluted in kinase buffer, (Roche Diagnostics GmbH, Cat. No.: 127531-001,), final conc.: 4 μM
TRIS: 2-Amino-2-hydroxymethyl-1,3-propoanediol (“tris-(hydroxymethyl)-aminomethane”) (MERCK, Cat. No.: 108382.2500)
BSA: Bovine Serum Albumin Fraction V, fatty acid free (Roche Diagnostics GmbH, Cat. No. 9100221)
EDTA Titriplex III (di-Sodium-EDTA di-Hydrate), 120 mM, (MERCK, Cat. No.: 1.08418.1000)
ABTS buffer: ABTS (2,2′-azino-bis(3-ethylbenzthiazoline-6-sulfonic acid)) 16.7 mg/ml (Roche Diagnostics GmbH, Cat. No.: 1204530) • ABTS tablets: dissolve one ABTS tablet in 50 ml of working solution (ABTS buffer) (Roche Diagnostics GmbH, Cat. No.: 1112422 ) • Tween 20: Polysorbat 20 (Roche Diagnostics GmbH, Cat. No.: 10006394-001) • DTT: 1,4-Dithiothreitol (Roche Diagnostics GmbH, Cat. No.: 197777) • MgCl2×6H2O MERCK, Cat. No.: 105833.1000 • Kinase buffer: 50 mM TRIS, 10 mM MgCl2, 1 mM DTT, 0.1% Tween 20, pH 7.8 PBS-T (=Wash buffer) (PBS-T)10 g/l PBS(Phosphate buffered saline) with 0.033% Tween 20 • 3% BSA/PBS-T: 3% BSA dissolved in PBS-T Method
This assay is performed in 96-well format for IC50 determination with 5 samples (each with 8 concentrations by twofold testing), 100 μl incubation volume and the following plate layout:
S samples, with ATP, 1% DMSO, final conc.: a=100 μM, b=20 μM, c=4 μM, d=0.8 μM, e=0.16 μM, f=0.032 μM, g=0.0064 μM, h=0.00128 μM Step/Action • (1) Sample preparation: add 24 μl per well samples (descending sequence) diluted in kinase buffer to assay plate (final conc. for DMSO 1%). • 2. Add directly 16 μl Aurora-A-his-4 diluted in kinase buffer to assay plate. • 3. Add directly 40 μl per well PKB-GSK2/ATP mixture to assay plate, (final conc.: Aurora A=250 ng/ml, GSK2=200 nM, ATP=4 μM). Negative control: without ATP. • 4. Incubate assay plate for exactly 90 min at room temperature. • 5. Stop reaction by adding 20 μl EDTA in all wells. • 6. Wash assay plate 3× with 200 μl washing buffer per well. • 7. Add 100 μl MAK<P-GSK>M27E5-IgG (1:10000) and PAK<M-Ig>S-IgG-POD (1:6000) dissolved in 3% BSA/PBS-T to assay plate per well. • 8. Incubate assay plate for 60 min at room temperature. • 9. Wash assay plate 3× with 200 μl washing buffer per well • 10. Add 100 μl ABTS solution to assay plate per well, incubate for approx. 4 min at RT on MTP shaker. • 11. Measure absorption at 405/492 nm. • 12. Calculate % inhibition as: (1−(Esample−ENC)/(EPC−ENC))×100 1)
13. Calculate IC50 using a non-linear curve fit (XLfit software (ID Business Solution Ltd., Guilford, Surrey, UK))

IC50 [µM] | Compound
0.001 to 0.1 | CC1(C)C(=O)N(Cc2nnn[nH]2)c2cc3[nH]c(-c4n[nH]c5ccccc45)nc3cc21 [Example 33, 2-(1H-Indazol-3-yl)-7,7-dimethyl-5-(1H-tetrazol-5-ylmethyl)-5,7-dihydro-3H-imidazo[4,5-f]indol-6-one]
0.001 to 0.1 | CC1(C)C(=O)N(CC(O)CN2CCOCC2)c2cc3[nH]c(-c4n[nH]c5ccccc45)nc3cc21 (stereo not drawn) [Example 29, 5-(2-Hydroxy-3-morpholin-4-yl-propyl)-2-(1H-indazol-3-yl)-7,7-dimethyl-5,7-dihydro-3H-imidazo[4,5-f]indol-6-one]
0.1 to 0.25 | CC1(C)CC(=O)Nc2cc3nc(-c4n[nH]c5ccccc45)[nH]c3cc21 [Example 10, 2-(1H-Indazol-3-yl)-8,8-dimethyl-1,5,7,8-tetrahydro-imidazo[4,5-g]quinolin-6-one]
